Test results taken from patent US11464751B2, “Use of fluoroethylnormemantine for the prevention and treatment of anxiety” (REST THERAPEUTICS, priority 2017, dated 2022).

System: naive rats (Wistar)
Experiment: Open-field test with light gradient
Format: in vivo, rat
Method: Thus, to test state anxiety, several animal models are commonly used and have been validated by numerous studies: • open field test: This consists of forcibly exposing the animal (rat or mouse) to a new environment and observing its behavior. […] Locomotor activity and behavior are then assessed by recording the number of crossings of the grid lines, the frequency of retreats, the number of entries and the time spent in the central squares. This animal model is considered a good model of “normal” anxiety when adapting to a new environment. It has good predictability of human response to treatment (L. Prut, European Journal of Pharmacology 463 (2003) 3-33). The open-field test is also useful, when it is prolonged (behavioral recording time over 2 hours), as it allows monitoring the motor activity of the animals and thus their state of wakefulness, whereas measurements at short times give information on anxiety. • the light-dark box test: another animal model of anxiety is based on the aversive properties of an open-field space and on the comparison of exploratory activities in a lit compartment and in a dark compartment under the influence of anxiolytic substances (M Bourin, European Journal of Pharmacology 463 (2003) 55-65). This paradigm is based on rodents' innate aversion to bright places and on rodents' spontaneous exploratory behavior in response to stressful environments (new environment or light). The test device is divided into two compartments, one is small, dark and safe, the second is large, bright and stressful. This paradigm allows the prediction of anxiolytic or anxiogenic drug-like activities in mice. Passages between each compartment are a cue of exploration activity, while the time spent in each compartment reflects aversion. Anxiolytics, effective in humans, classic (benzodiazepines) as well as more recent anxiolytic compounds (serotonergic drugs or drugs acting on neuropeptide receptors) can be detected by this animal model which has the advantage of being simple and quick to use. • The open-field test with light gradient: the two models described above can be judiciously coupled in order to check the anxiolytic potential of a molecule, by eliminating the “burrow” effect induced by the presence of the dark compartment.
In the following examples, the effects of memantine, propranolol and fluoroethylnormemantine (FENM, the subject of the present invention) are studied in naive rats (Wistar) subjected to various tests related to depression or anxiety and then compared.
The test substances are administered to rats intraperitoneally in a volume of 5 ml/kg, 30 minutes before the behavioral tests are performed.
The injected solutions contain either of the molecules in the form of one of their salts, a hydrochloride (memantine·HCl and FENM·HCl) for the nitrogen derivatives and as such for propranolol, at the concentrations indicated below in a mixture of 95% (NaCl 0.9% ww in water)/5% ethanol. In each experiment, the dose per kilogram is referenced.
For each paradigm, and each solution tested, 12 rats are subjected to injection and behavioral testing. The control solution is a saline solution.
In this example the light-dark box test was modified by eliminating the compartmentalization of the box and using a high-intensity light gradient (600 lux). As it is based on rodents' innate aversion to light, the increase in time spent in the area closest to the light source is therefore considered to reflect a lower level of anxiety.
The animals are exposed to a 12-minute sequence, broken down into three parts, 4 minutes in darkness (ambient light of 5 lux), 4 minutes in the presence of the light gradient and 4 minutes again in darkness. Displacements are recorded in the same way as for the open-field test. The field of view is divided into 4 zones numbered from 1 to 4 according to the increasing distance from the light source.

NC12CC3CC(C1)CC(CCF)(C3)C2
Percentage of time spent in the area closest to the light source (5 mg/kg i.p., Dark 1 (Habituation)): 32% | Percentage of time spent in the area closest to the light source (5 mg/kg i.p., Dark 2 (Relief)): 30% | Percentage of time spent in the area closest to the light source (5 mg/kg i.p., Light 600 lux (Stress)): 22% | anxiety effect (avoidance of the most strongly illuminated area) (10 mg/kg dose): completely eliminated | Percentage of time spent in the area closest to the light source (10 mg/kg i.p., Dark 1 (Habituation)): 29% | Percentage of time spent in the area closest to the light source (10 mg/kg i.p., Dark 2 (Relief)): 34% | Percentage of time spent in the area closest to the light source (10 mg/kg i.p., Light 600 lux (Stress)): 30% | Percentage of time spent in the area closest to the light source (20 mg/kg i.p., Dark 1 (Habituation)): 39% | Percentage of time spent in the area closest to the light source (20 mg/kg i.p., Dark 2 (Relief)): 29% | Percentage of time spent in the area closest to the light source (20 mg/kg i.p., Light 600 lux (Stress)): 21%
